Molecular target: T1, Human M4 (Homo sapiens, UniProt P08173)
T1 construct: expressed in transfected cells
T1 sequence (P08173 1-479): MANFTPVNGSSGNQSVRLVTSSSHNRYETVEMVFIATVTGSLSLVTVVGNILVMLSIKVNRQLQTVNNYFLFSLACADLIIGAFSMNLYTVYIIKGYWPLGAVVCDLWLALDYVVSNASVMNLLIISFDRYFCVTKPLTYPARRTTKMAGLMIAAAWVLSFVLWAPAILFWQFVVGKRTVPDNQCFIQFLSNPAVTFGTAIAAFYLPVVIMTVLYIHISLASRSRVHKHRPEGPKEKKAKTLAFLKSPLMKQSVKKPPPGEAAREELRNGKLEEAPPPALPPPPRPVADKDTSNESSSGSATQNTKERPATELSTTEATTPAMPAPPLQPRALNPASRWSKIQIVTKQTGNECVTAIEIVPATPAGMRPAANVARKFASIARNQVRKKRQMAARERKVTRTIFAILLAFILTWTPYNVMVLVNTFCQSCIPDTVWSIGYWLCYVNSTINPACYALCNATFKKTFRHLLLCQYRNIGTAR
Test: mAChR M4 cell-based functional assay (calcium flux, potentiation of EC20 acetylcholine response), hM4-Gqi5 CHO-K1 cells
Details: for Emax at 30 µM: % ACh maximum at 30 μM, human M4, read-out: Emax; for EC50: hM4-Gqi5 CHO-K1 cells, calcium flux, PAM of EC20 acetylcholine, read-out: Human M4 EC50
Outline: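 CHO-K1 cells stably expressing human M4 with chimeric Gqi5, loaded with Fluo-4 AM 50 min at 37 °C; calcium flux read by FDSS. 11-point 1:3 compound curves added, then EC20 acetylcholine at 144 s; potentiation of the EC20 response fitted by four-parameter logistic to give EC50 and Emax.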

| Compound | Emax at 30 µM (CHO-K1) [%] | EC50 [nM] | Emax (CHO-K1) [%] |
| --- | --- | --- | --- |
| Cc1c(N2CCc3ncc(C(=O)NCc4cncs4)cc3C2)nn2cnnc2c1C [Compound 118, 6-(7,8-Dimethyl-[1,2,4]triazolo[4,3-b]pyridazin-6-yl)-N-(thiazol-5-ylmethyl)-7,8-dihydro-5H-1,6-naphthyridine-3-carboxamide] | 99 | 707 |  |
| Cc1c(N2CCc3ncc(C(=O)N4CCC(O)CC4C)cc3C2)nn2cnnc2c1C (centres unmarked) [Compound 119, [6-(7,8-dimethyl-[1,2,4]triazolo[4,3-b]pyridazin-6-yl)-7,8-dihydro-5H-1,6-naphthyridin-3-yl]-(4-hydroxy-2-methyl-1-piperidyl)methanone] | 73 |  |  |
| Cc1c(N2CCc3ncc(C(=O)NCC4COC4)cc3C2)nn2cnnc2c1C [Compound 120, 6-(7,8-dimethyl-[1,2,4]triazolo[4,3-b]pyridazin-6-yl)-N-(oxetan-3-ylmethyl)-7,8-dihydro-5H-1,6-naphthyridine-3-carboxamide] | 76 |  |  |
| Cc1c(N2CCc3ncc(C(=O)NCc4cccs4)cc3C2)nn2cnnc2c1C [Compound 121, 6-(7,8-dimethyl-[1,2,4]triazolo[4,3-b]pyridazin-6-yl)-N-(2-thienylmethyl)-7,8-dihydro-5H-1,6-naphthyridine-3-carboxamide] | 100 | 881 |  |
| Cc1c(N2CCc3ncc(C(=O)N4CCN(C5CC5)CC4)cc3C2)nn2cnnc2c1C [Compound 122, (4-cyclopropylpiperazin-1-yl)-[6-(7,8-dimethyl-[1,2,4]triazolo[4,3-b]pyridazin-6-yl)-7,8-dihydro-5H-1,6-naphthyridin-3-yl]methanone] | 51 |  |  |
| Cc1c(N2CCc3ncc(C(=O)N4CC(C)(C)C4)cc3C2)nn2cnnc2c1C [Compound 123, (3,3-dimethylazetidin-1-yl)-[6-(7,8-dimethyl-[1,2,4]triazolo[4,3-b]pyridazin-6-yl)-7,8-dihydro-5H-1,6-naphthyridin-3-yl]methanone] | 77 | 4770 |  |
| Cc1c(N2CCc3ncc(C(=O)NC(C)c4nccs4)cc3C2)nn2cnnc2c1C (centres unmarked) [Compound 124, 6-(7,8-dimethyl-[1,2,4]triazolo[4,3-b]pyridazin-6-yl)-N-(1-thiazol-2-ylethyl)-7,8-dihydro-5H-1,6-naphthyridine-3-carboxamide] | 63 | 3690 |  |
| Cc1c(N2CCc3ncc(C(=O)NCCN4CCCC4)cc3C2)nn2cnnc2c1C [Compound 125, 6-(7,8-dimethyl-[1,2,4]triazolo[4,3-b]pyridazin-6-yl)-N-(2-pyrrolidin-1-ylethyl)-7,8-dihydro-5H-1,6-naphthyridine-3-carboxamide] | 85 | 7200 |  |
| Cc1c(N2CCc3ncc(C(=O)N(C)Cc4ccco4)cc3C2)nn2cnnc2c1C [Compound 126, 6-(7,8-dimethyl-[1,2,4]triazolo[4,3-b]pyridazin-6-yl)-N-(2-furylmethyl)-N-methyl-7,8-dihydro-5H-1,6-naphthyridine-3-carboxamide] | 55 |  |  |
| Cc1c(N2CCc3ncc(C(F)(F)F)cc3C2)nn2cnnc2c1C [Compound 127, 6-(7,8-dimethyl-[1,2,4]triazolo[4,3-b]pyridazin-6-yl)-3-(trifluoromethyl)-7,8-dihydro-5H-1,6-naphthyridine] | 107 | 151 |  |
| Cc1ccc2c(n1)CCN(c1nn3cnnc3c(C)c1C)C2 [Compound 128, 6-(7,8-dimethyl-[1,2,4]triazolo[4,3-b]pyridazin-6-yl)-2-methyl-7,8-dihydro-5H-1,6-naphthyridine] |  | 380 | 103 |
| CCn1ccc(-c2cnc3c(c2)CN(c2nn4cnnc4c(C)c2C)CC3)n1 [Compound 129, 6-(7,8-dimethyl-[1,2,4]triazolo[4,3-b]pyridazin-6-yl)-3-(1-ethylpyrazol-3-yl)-7,8-dihydro-5H-1,6-naphthyridine] | 99 | 210 |  |
| CCn1ccc(-c2cnc3c(c2)CN(c2nn4cnnc4cc2C)CC3)n1 [Compound 130, 3-(1-ethylpyrazol-3-yl)-6-(7-methyl-[1,2,4]triazolo[4,3-b]pyridazin-6-yl)-7,8-dihydro-5H-1,6-naphthyridine] | 93 |  |  |
| CCn1ccc(-c2cnc3c(c2)CN(c2nn4ccnc4cc2C)CC3)n1 [Compound 131, 3-(1-ethylpyrazol-3-yl)-6-(7-methylimidazo[1,2-b]pyridazin-6-yl)-7,8-dihydro-5H-1,6-naphthyridine] | 81 | 921 |  |
| Cc1c(N2CCc3ncc(-c4cc(-c5ccccc5)no4)cc3C2)nn2cnnc2c1C [Compound 132, 5-[6-(7,8-dimethyl-[1,2,4]triazolo[4,3-b]pyridazin-6-yl)-7,8-dihydro-5H-1,6-naphthyridin-3-yl]-3-phenyl-isoxazole] | 81 | 1950 |  |
| Cc1cc2nncn2nc1N1CCc2ncc(-c3cc(-c4ccccc4)no3)cc2C1 [Compound 133, 5-[6-(7-methyl-[1,2,4]triazolo[4,3-b]pyridazin-6-yl)-7,8-dihydro-5H-1,6-naphthyridin-3-yl]-3-phenyl-isoxazole] | 68 | 1340 |  |
| Cc1cnn(C)c1-c1cnc2c(c1)CN(c1nn3cnnc3c(C)c1C)CC2 [Compound 134, 3-(2,4-dimethylpyrazol-3-yl)-6-(7,8-dimethyl-[1,2,4]triazolo[4,3-b]pyridazin-6-yl)-7,8-dihydro-5H-1,6-naphthyridine] | 88 | 299 |  |
| Cc1cc2nncn2nc1N1CCc2ncc(-c3c(C)cnn3C)cc2C1 [Compound 135, 3-(2,4-dimethylpyrazol-3-yl)-6-(7-methyl-[1,2,4]triazolo[4,3-b]pyridazin-6-yl)-7,8-dihydro-5H-1,6-naphthyridine] | 81 | 772 |  |
| Cc1cc2nccn2nc1N1CCc2ncc(-c3c(C)cnn3C)cc2C1 [Compound 136, 3-(2,4-dimethylpyrazol-3-yl)-6-(7-methylimidazo[1,2-b]pyridazin-6-yl)-7,8-dihydro-5H-1,6-naphthyridine] | 66 | 1200 |  |
| Cc1c(N2CCc3ncc(-c4ccnn4C)cc3C2)nn2cnnc2c1C [Compound 137, 6-(7,8-dimethyl-[1,2,4]triazolo[4,3-b]pyridazin-6-yl)-3-(2-methylpyrazol-3-yl)-7,8-dihydro-5H-1,6-naphthyridine] | 99 | 295 |  |
| Cc1cc2nncn2nc1N1CCc2ncc(-c3ccnn3C)cc2C1 [Compound 138, 3-(2-methylpyrazol-3-yl)-6-(7-methyl-[1,2,4]triazolo[4,3-b]pyridazin-6-yl)-7,8-dihydro-5H-1,6-naphthyridine] | 105 | 574 |  |
| Cc1cc2nccn2nc1N1CCc2ncc(-c3ccnn3C)cc2C1 [Compound 139, 6-(7-methylimidazo[1,2-b]pyridazin-6-yl)-3-(2-methylpyrazol-3-yl)-7,8-dihydro-5H-1,6-naphthyridine] | 83 | 433 |  |
| Cc1cc2nncn2nc1N1CCc2ncc(-c3cnn(C)c3)cc2C1 [Compound 140, 3-(1-methylpyrazol-4-yl)-6-(7-methyl-[1,2,4]triazolo[4,3-b]pyridazin-6-yl)-7,8-dihydro-5H-1,6-naphthyridine] | 100 | 373 |  |
